The text below walks through data of patent publication US10981866B2 (THE UNITED STATES OF AMERICA, AS REPRESENTED BY THE …, priority 2017, dated 2021).

This experiment addresses bovine serum albumin (Bos taurus, UniProt P02769). Description: binding kinetics of EB-TATE and bovine serum albumin. The conditions noted are these: unlabeled EB-TATE.

bovine serum albumin, sequence (P02769 25-607): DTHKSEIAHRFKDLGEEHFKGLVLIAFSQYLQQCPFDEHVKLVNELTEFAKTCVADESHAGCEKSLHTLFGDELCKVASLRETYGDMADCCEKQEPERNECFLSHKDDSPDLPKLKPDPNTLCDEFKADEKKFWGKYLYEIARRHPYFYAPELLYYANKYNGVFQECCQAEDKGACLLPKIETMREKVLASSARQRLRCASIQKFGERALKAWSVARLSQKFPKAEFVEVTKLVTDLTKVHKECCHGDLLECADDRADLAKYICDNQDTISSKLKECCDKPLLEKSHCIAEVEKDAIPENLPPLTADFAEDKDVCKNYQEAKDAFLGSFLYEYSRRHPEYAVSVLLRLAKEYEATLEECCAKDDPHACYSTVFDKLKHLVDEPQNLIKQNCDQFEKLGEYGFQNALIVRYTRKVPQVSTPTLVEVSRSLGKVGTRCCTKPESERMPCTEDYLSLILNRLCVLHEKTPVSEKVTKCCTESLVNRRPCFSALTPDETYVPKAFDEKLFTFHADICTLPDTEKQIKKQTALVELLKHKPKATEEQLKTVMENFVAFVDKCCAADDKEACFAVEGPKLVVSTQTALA

For the compound `Cc1cc(-c2ccc(NC(=O)[C@@H](CCCCNC(=O)CCN3C(=O)CC(SCCC(=O)N[C@H](Cc4ccccc4)C(=O)N[C@H]4CSSCC(C(=O)NC(C(=O)O)[C@@H](C)O)NC(=O)[C@H]([C@@H](C)O)NC(=O)[C@H](CCCCN)NC(=O)[C@@H](Cc5c[nH]c6ccccc56)NC(=O)[C@H](Cc5ccccc5)NC4=O)C3=O)NC(=O)CN3CCN(CC(=O)O)CCN(CC(=O)O)CCN(CC(=O)O)CC3)c(C)c2)ccc1N=Nc1ccc2c(S(=O)(=O)O)cc(S(=O)(=O)O)c(N)c2c1O` (some centres unmarked) [EB-TATE], the “Kd, affinity to bovine serum albumin” value is “μM Kd affinity”; the “Kon and Koff, bovine serum albumin” value is “high Kon and low Koff”.
